Structures are written as SMILES. Where a name gives a salt, the structure may show the parent alone.

One experiment deals with amyloid β production in transfected H4 (human neuroglioma) cells stably expressing APP constructs. Kind of experiment: In vitro cell-based assay of inhibitors of amyloid β production (ELISA). To be noted: Homo sapiens, 16 h, transfected H4 cells stably expressing APP constructs; approximately 16 hours incubation; amyloid β in medium by ELISA; read-out: ACTIVITY (IC50, inhibition of amyloid β production). A digest of the protocol: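 Test agents are screened at 10-100 μM for about 16 hours on cells stably expressing wild-type or variant APP. Secreted Aβ is measured by ELISA and compared with control-treated cells.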
In the case of `O=S(=O)(c1ccccc1)N(Cc1ccccc1CCCO)c1ccccc1` [Example 1088, N-[2-(3-hydroxypropyl)benzyl]-N-phenylbenzenesulfonamide], the IC50 was more than 10000 nM.
Regarding `O=S(=O)(c1ccc(Cl)cc1)N(Cc1cc(Cl)ccc1C#CCCO)c1ccccc1` [Example 1089, 4-chloro-N-[5-chloro-2-(4-hydroxy-1-butynyl)benzyl]-N-phenylbenzenesulfonamide], the IC50 is more than 10000 nM.
For the molecule `O=S(=O)(c1ccc(Cl)cc1)N(Cc1ccccc1OCc1cccnc1)c1ccccc1` [Example 1091, 4-chloro-N-phenyl-N-[2-(3-pyridinylmethoxy)benzyl]benzenesulfonamide hydrochloride], the half-inhibitory concentration (IC50) is more than 10000 nM.
As to `O=S(=O)(c1ccc(Cl)cc1)N(Cc1ccccc1OCc1ccccn1)c1ccccc1` [Example 1092, 4-chloro-N-phenyl-N-[2-(2-pyridinylmethoxy)benzyl]benzenesulfonamide hydrochloride], the half-inhibitory concentration (IC50) was more than 10000 nM.
The same measure, in the same setting: the same measure for `CS(=O)(=O)c1ccc(N(Cc2ccccc2OCCCN2CCCCC2)S(=O)(=O)c2ccc(Cl)cc2)cc1` [Example 1094, 4-chloro-N-[4-(methylsulfonyl)phenyl]-N-{2-[3-(1-piperidinyl)propoxy]benzyl}benzenesulfonamide hydrochloride]: more than 10000 nM; for `O=S(=O)(c1ccc(Sc2ccccc2)cc1)N(Cc1ccccc1OCCCSc1ccccc1)c1cc(F)ccc1F` [Example 1095, N-(2,5-difluorophenyl)-4-(phenylsulfanyl)-N-{2-[3-(phenylsulfanyl)propoxy]benzyl}benzenesulfonamide]: more than 10000 nM.
In the case of `C[C@H](CCC[N+](=O)[O-])N(c1cc(Cl)ccc1Cl)S(=O)(=O)c1ccc(Cl)cc1` [Example 1099, 4-chloro-N-(2,5-dichlorophenyl)-N-[4-nitro-1(R)-methylbutyl]benzenesulfonamide], the IC50 was not above 25 nM.
With `C[C@H](CCN1CCCCC1CS(C)(=O)=O)N(c1cc(Cl)ccc1Cl)S(=O)(=O)c1ccc(Cl)cc1` (stereo partly drawn) [Example 1102, 4-chloro-N-(2,5-dichlorophenyl)-N-[3-[2-[(methylsulfonyl)methyl]-1-piperidinyl]-1(R)-methylpropyl]benzenesulfonamide], the IC50 was not above 25 nM.
As to `C[C@H](CCCN1CCSC1C(=O)O)N(c1cc(Cl)ccc1Cl)S(=O)(=O)c1ccc(Cl)cc1` (stereo partly drawn) [Example 1103, 4-chloro-N-(2,5-dichlorophenyl)-N-[4-(2-carboxy-3-thiazolidinyl)-1(R)-methylbutyl]benzenesulfonamide], the half-inhibitory concentration (IC50) was not above 25 nM.
In the case of `COC(=O)C1SCCN1CCC[C@@H](C)N(c1cc(Cl)ccc1Cl)S(=O)(=O)c1ccc(Cl)cc1` (stereo partly drawn) [Example 1105, 4-chloro-N-(2,5-dichlorophenyl)-N-[4-(2-methoxycarbonyl-3-thiazolidinyl)-1(R)-methylbutyl]benzenesulfonamide], the 50% inhibitory concentration (IC50) was not above 25 nM.
The same measure, in the same setting: the same measure for `CC(CC[C@@H](C)N(c1cc(Cl)ccc1Cl)S(=O)(=O)c1ccc(Cl)cc1)N1CCSC1C(=O)O` (stereo partly drawn) [Example 1106, 4-chloro-N-(2,5-dichlorophenyl)-N-[4-(2-carboxy-3-thiazolidinyl)-1(R)-methylpentyl]benzenesulfonamide]: not above 25 nM; for `C[C@H](CCC[N+](=O)[O-])N(c1cc(Cl)ccc1F)S(=O)(=O)c1ccc(Cl)cc1` [Example 1107, 4-chloro-N-(5-chloro-2-fluorophenyl)-N-[4-nitro-1(R)-methylbutyl]benzenesulfonamide]: not above 25 nM.
As for `C[C@H](CCN1CCSC1C(=O)O)N(c1cc(Cl)ccc1Cl)S(=O)(=O)c1ccc(Cl)cc1` (stereo partly drawn) [Example 1111, 4-chloro-N-(2,5-dichlorophenyl)-N-[3-(2-carboxy-3-thiazolidinyl)-1(R)-methylpropyl]benzenesulfonamide], the IC50 fell in the range of 25 to 50 nM.
In the case of `CC(=O)NCCC[C@@H](C)N(c1cc(Cl)ccc1Cl)S(=O)(=O)c1ccc(Cl)cc1` [Example 1113, 4-chloro-N-(2,5-dichlorophenyl)-N-[4-(acetylamino)-1(R)-methylbutyl]benzenesulfonamide], the half-maximal inhibitory concentration (IC50) fell in the range of 25 to 50 nM.
Regarding `CC(CCCN1CCOCC1)N(c1cc(Cl)ccc1F)S(=O)(=O)c1ccc(Cl)cc1` (centres unmarked) [Example 1114, 4-chloro-N-(5-chloro-2-fluorophenyl)-N-[4-(4-morpholinyl)-1-methylbutyl]benzenesulfonamide], the half-maximal inhibitory concentration (IC50) was in the range of 25 to 50 nM.
Regarding `COC(=O)C1SCCN1CCCC[C@@H](C)N(c1cc(Cl)ccc1Cl)S(=O)(=O)c1ccc(Cl)cc1` (stereo partly drawn) [Example 1117, 4-chloro-N-(2,5-dichlorophenyl)-N-[5-(2-methoxycarbonyl-3-thiazolidinyl)-1(R)-methylpentyl]benzenesulfonamide], the IC50 was 25 to 50 nM.

Still in this experiment, the particulars now being: Homo sapiens; transfected H4 cells stably expressing APP constructs; approximately 16 hours incubation; amyloid β in medium by ELISA; read-out: ACTIVITY (IC50, inhibition of amyloid β production).
As to `C[Si](C)(C)C#Cc1ccccc1CN(c1ccccc1)S(=O)(=O)c1ccc(Cl)cc1` [Example 1087, 4-chloro-N-phenyl-N-{2-[(trimethylsilyl)ethynyl]benzyl}benzenesulfonamide], the IC50 is more than 10000 nM.

Staying with this experiment, now noted: transfected H4 cells stably expressing APP constructs; approximately 16 hours incubation; amyloid β in medium by ELISA; read-out: ACTIVITY (IC50, inhibition of amyloid β production).
Consider `CCOC(=O)CCCc1ccccc1CN(c1ccccc1)S(=O)(=O)c1ccccc1[N+](=O)[O-]` [Example 1096, ethyl 4-[2-({[(2-ntrophenyl)sulfonyl]anilino}methyl)phenyl]butanoate], for which the IC50 is more than 10000 nM.
With `CCCCCCCCCCCCCCCCCC(=O)N(C)CCOc1ccccc1C(C)N(c1cc(F)ccc1F)S(=O)(=O)c1ccc(Cl)cc1` (centres unmarked) [Example 1098], the 50% inhibitory concentration (IC50) was more than 10000 nM.
Turning to `C[C@H](CCCNS(C)(=O)=O)N(c1cc(Cl)ccc1F)S(=O)(=O)c1ccc(Cl)cc1` [Example 1100], the IC50 was not above 25 nM.
`C[C@H](CCCN(C)S(C)(=O)=O)N(c1cc(Cl)ccc1F)S(=O)(=O)c1ccc(Cl)cc1` [Example 1101]: the IC50 was not above 25 nM.
Turning to `C[C@H](CCCN1CCCC(S(C)(=O)=O)C1)N(c1cc(Cl)ccc1Cl)S(=O)(=O)c1ccc(Cl)cc1` (stereo partly drawn) [Example 1108, 4-chloro-N-(2,5-dichlorophenyl)-N-[4-[(3-methylsulfonyl)-1-piperidinyl]-1(R)-methylbutyl]benzenesulfonamide], the IC50 is not above 25 nM.
Same read-out and setting: under `C[C@H](CCCN1CCCC(S(C)(=O)=O)C1)N(c1cc(Cl)ccc1Cl)S(=O)(=O)c1ccc(Cl)cc1` (stereo partly drawn) [Example 1109, 4-chloro-N-(2,5-dichlorophenyl)-N-[4-[(3-methylsulfonyl)-1-piperidinyl]-1(R)-methylbutyl]benzenesulfonamide] stands not above 25 nM; under `C[C@H](CCCCN1CCC(S(C)(=O)=O)C1)N(c1cc(Cl)ccc1Cl)S(=O)(=O)c1ccc(Cl)cc1` (stereo partly drawn) [Example 1112, 4-chloro-N-(2,5-dichlorophenyl)-N-[5-[(3-methylsulfonyl)-1-pyrrolidinyl]-1(R)-methylpentyl]benzenesulfonamide], 25 to 50 nM; under `C[C@H](CCCCN1CCCC(S(C)(=O)=O)C1)N(c1cc(Cl)ccc1Cl)S(=O)(=O)c1ccc(Cl)cc1` (stereo partly drawn) [Example 1115, 4-chloro-N-(2,5-dichlorophenyl)-N-[5-[(3-methylsulfonyl)-1-piperidinyl]-1(R)-methylpentyl]benzenesulfonamide], 25 to 50 nM.
Still for that read-out and setting: the same measure for `C[C@H](CCN1CCCC(S(C)(=O)=O)C1)N(c1cc(Cl)ccc1Cl)S(=O)(=O)c1ccc(Cl)cc1` (stereo partly drawn) [Example 1118, 4-chloro-N-(2,5-dichlorophenyl)-N-[3-[(3-methylsulfonyl)-1-piperidinyl]-1(R)-methylpropyl]benzenesulfonamide]: 25 to 50 nM.

What is called IC50 is the concentration at which inhibition is half-maximal.
